According to patent US20080188483A1, “Compounds and Compositions as Protein Kinase Inhibitors” (IRM LLC, priority 2006, published 2008):

Assays:
[1] = target: T1, FGFR3 (Ba/F3-TEL-FGFR3 cells) (Homo sapiens, UniProt P22607); experiment: FGFR3 cellular assay (Ba/F3-TEL-FGFR3 proliferation); assay type: cell-based
T1 construct: expressed in transfected cells; host or cells: Ba/F3; the other entry of the earlier key: ETV6 (P41212, Transcription factor ETV6)
Procedure: Compounds of the invention are tested for their ability to inhibit transformed Ba/F3-TEL-FGFR3 cells proliferation, which is depended on FGFR3 cellular kinase activity. Ba/F3-TEL-FGFR3 are cultured up to 800,000 cells/mL in suspension, with RPMI 1640 supplemented with 10% fetal bovine serum as the culture medium. Cells are dispensed into 384-well format plate at 5000 cell/well in 50 μL culture medium. Compounds of the invention are dissolved and diluted in dimethylsulfoxide (DMSO). Twelve points 1:3 serial dilutions are made into DMSO to create concentrations gradient ranging typically from 10 mM to 0.05 μM. Cells are added with 50 nL of diluted compounds and incubated for 48 hours in cell culture incubator. AlamarBlue® (TREK Diagnostic Systems), which can be used to monitor the reducing environment created by proliferating cells, are added to cells at final concentration of 10%. After additional four hours of incubation in a 37° C. cell culture incubator, fluorescence signals from reduced AlamarBlue® (Excitation at 530 nm, Emission at 580 nm) are quantified on Analyst GT (Molecular Devices Corp.). IC50 values are calculated by linear regression analysis of the percentage inhibition of each compound at 12 concentrations.

purified FGFR3 (Upstate) = target: T2, purified FGFR3 (Upstate) (Homo sapiens, UniProt P22607); experiment: FGFR3 enzymatic assay (HTRF); assay type: biochemical
T2 construct: purchased Upstate
T2 sequence (P22607 23-806): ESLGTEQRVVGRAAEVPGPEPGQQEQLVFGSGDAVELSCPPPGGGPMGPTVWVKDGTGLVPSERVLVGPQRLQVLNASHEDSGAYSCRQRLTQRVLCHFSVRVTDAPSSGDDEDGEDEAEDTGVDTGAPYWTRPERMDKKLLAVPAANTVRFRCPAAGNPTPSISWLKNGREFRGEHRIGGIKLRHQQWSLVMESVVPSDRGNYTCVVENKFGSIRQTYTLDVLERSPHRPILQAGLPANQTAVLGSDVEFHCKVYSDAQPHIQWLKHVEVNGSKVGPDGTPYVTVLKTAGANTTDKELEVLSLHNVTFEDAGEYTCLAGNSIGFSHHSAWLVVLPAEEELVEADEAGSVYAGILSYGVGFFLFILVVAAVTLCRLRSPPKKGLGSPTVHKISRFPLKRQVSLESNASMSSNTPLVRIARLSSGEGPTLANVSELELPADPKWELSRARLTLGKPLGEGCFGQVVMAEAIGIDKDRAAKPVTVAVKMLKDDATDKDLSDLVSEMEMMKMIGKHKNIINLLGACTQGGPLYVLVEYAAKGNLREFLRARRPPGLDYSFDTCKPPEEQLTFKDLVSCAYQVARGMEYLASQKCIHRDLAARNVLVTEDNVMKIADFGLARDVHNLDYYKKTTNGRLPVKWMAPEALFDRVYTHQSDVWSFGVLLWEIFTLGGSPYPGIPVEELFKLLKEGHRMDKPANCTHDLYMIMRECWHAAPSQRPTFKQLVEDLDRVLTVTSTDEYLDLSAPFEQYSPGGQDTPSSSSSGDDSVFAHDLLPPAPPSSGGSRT
Procedure: Kinase activity assay with purified FGFR3 (Upstate) is carried out in a final volume of 10 μL containing 0.25 μg/mL of enzyme in kinase buffer (30 mM Tris-HCl pH7.5, 15 mM MgCl2, 4.5 mM MnCl2, 15 μM Na3VO4 and 50 μg/mL BSA), and substrates (5 μg/mL biotin-poly-EY(Glu, Tyr) (CIS-US, Inc.) and 3 μM ATP). Two solutions are made: the first solution of 5 μl contains the FGFR3 enzyme in kinase buffer was first dispensed into 384-format ProxiPlate® (Perkin-Elmer) followed by adding 50 nL of compounds dissolved in DMSO, then 5 μl of second solution contains the substrate (poly-EY) and ATP in kinase buffer was added to each wells. The reactions are incubated at room temperature for one hour, stopped by adding 10 μL of HTRF detection mixture, which contains 30 mM Tris-HCl pH7.5, 0.5 M KF, 50 mM ETDA, 0.2 mg/mL BSA, 15 μg/mL streptavidin-XL665 (CIS-US, Inc.) and 150 ng/mL cryptate conjugated anti-phosphotyrosine antibody (CIS-US, Inc.). After one hour of room temperature incubation to allow for streptavidin-biotin interaction, time resolved florescent signals are read on Analyst GT (Molecular Devices Corp.). IC50 values are calculated by linear regression analysis of the percentage inhibition of each compound at 12 concentrations (1:3 dilution from 50 μM to 0.28 nM).

T1 sequence (P22607 472-761 limits assumed): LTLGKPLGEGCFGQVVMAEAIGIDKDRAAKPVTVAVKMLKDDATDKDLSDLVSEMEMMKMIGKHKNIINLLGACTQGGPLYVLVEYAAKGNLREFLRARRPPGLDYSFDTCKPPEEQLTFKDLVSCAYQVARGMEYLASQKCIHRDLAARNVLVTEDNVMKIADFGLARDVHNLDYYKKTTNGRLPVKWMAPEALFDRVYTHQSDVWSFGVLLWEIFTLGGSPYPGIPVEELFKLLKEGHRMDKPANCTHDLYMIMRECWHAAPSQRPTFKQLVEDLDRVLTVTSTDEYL

IC50 [1]: 40 nM
IC50 (purified FGFR3 (Upstate)): 4 nM
SMILES: CCN1CCN(Cc2ccc(NC(=O)c3cc(Nc4nccn4-c4ncnc5[nH]ccc45)cc(OC)c3)cc2C(F)(F)F)CC1 [Compound 9, N-[4-(4-ethyl-piperazin-1-ylmethyl)-3-trifluoromethyl-phenyl]-3-methoxy-5-[1-(7H-pyrrolo[2,3-d]pyrimidin-4-yl)-1H-imidazol-2-ylamino]-benzamide]
